From US6730521B1, “Chemical and biochemical assay method and apparatus” (The Technology Partnership PLC, priority 1999, dated 2004)

Target: T1, streptavidin (Streptomyces avidinii, UniProt P22629)
T1 construct: purchased Dynal
Test: FITC-biotin binding to a single streptavidin-coated bead in a scanned droplet
Settings: 5 μl of 48 nM FITC-biotin plus 5 μl buffer with a single 2.8 μm streptavidin bead; equilibrium after 30 minutes
Method: A 5 μl sample of a solution of 48 nM fluorescein isothiocyanate-labelled biotin (FITC-biotin) is added to 5 μl of a solution of buffer containing a single 2.8 μm diameter bead coated with streptavidin (obtained from Dynal). The sample was presented to the instrument for scanning as a 10 μl droplet on the surface of a glass microscope slide. Illumination and light collection was arranged from above the sample. The instrument was set to take fluorescent intensity measurements at 1 μm intervals across the sample in the x-direction with a line-to-line step of 2.2 μm in the y-direction. As the laser spot size was 6 μmm, this allowed for overlap between each scan line. The graphs plot the relative intensity (analogue-to-digital converter or ADC counts) against position (sample number) for several adjacent scan lines. Initially, the FITC-biotin has had insufficient time to diffuse to the streptavidin sites concentrated on the bead. The sample was scanned at intervals over the period of the experiment. It can be readily appreciated that the signal obtained from the illumination will be proportional to the number of molecules of label (FITC-biotin) in the path of the laser at each point. If, as in this case, the label is homogenous throughout the droplet then the signal at each point is proportional to the path length of the laser through the sample. […]

T1 sequence (P22629 25-183): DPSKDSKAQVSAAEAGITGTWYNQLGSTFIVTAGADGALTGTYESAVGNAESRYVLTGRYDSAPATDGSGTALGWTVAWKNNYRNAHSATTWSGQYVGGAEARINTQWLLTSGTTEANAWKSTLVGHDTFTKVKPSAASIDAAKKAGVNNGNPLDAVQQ

## fluorescein isothiocyanate-labelled biotin [FITC-biotin]
  PVS/UVS signal ratio at equilibrium: approx. 6.1
